Experiments:
Assay type in all cases: cell-based, canine
REM134 cells [1] = assay: Morphological analysis, phase-contrast microscopy; settings: REM134, 50, 100 or 200 µM, 48 h
Method: (§1) To investigate the morphological changes of the two CMC cell lines during the treatment with MPOBA, they were cultured in a 6-well plate at a density of 2 × 10^5 cells/well and allowed to incubate for 24 h until they reached 70–80% confluence. They were subsequently treated with MPOBA at varying concentrations from 0 to 200 µM for 48 h. Images of the cells were captured using a phase-contrast inverted microscope (Nikon, Tokyo, Japan) at 40× magnification.

CMGT071020 cells [2] = assay: Morphological analysis, phase-contrast microscopy; settings: CMGT071020, 50, 100 or 200 µM, 48 h
Method: as §1

REM134 cells [3] = assay: Annexin V-FITC/PI apoptosis assay, flow cytometry; settings: 48 h; for percentage of total apoptosis: untreated 5.14%
Method: (§2) The mode of cell death induced by MPOBA was evaluated using FITC Annexin V apoptosis detection kit I (BD Bioscience, San Jose, CA, USA) according to the manufacturer’s protocols. The REM134 and CMGT071020 cell lines were seeded at a density of 2 × 10^4 cells/well in a 12-well plate and allowed to grow for 24 h (60% confluency) prior to treatment with MPOBA at concentrations ranging from 0 to 200 µM for 48 h. After the incubation period, all adhering and floating cells were harvested and transferred into sterile centrifuge tubes. The cells were centrifuged at 400× g for 5 min at room temperature. The supernatant was aspirated, leaving approximately 50 µL of residual fluid in the tubes to avoid disturbing the pellets. FITC Annexin V (5 µL) and PI (5 µL) were added to the tubes containing cell pellets. The mixtures were gently vortexed and incubated for 15 min at room temperature in the dark. A binding buffer (400 µL) was added to each tube. A total of 20,000 events were acquired for each sample using a CytoFLEX flow cytometer (Beckman Coulter, Miami, FL, USA) within an hour. […] The experiment was performed with four replicates. The positive control was doxorubicin-treated CMC cells, while the negative control was 0.1% DMSO-treated CMC cells.

CMGT071020 cells [4] = assay: Annexin V-FITC/PI apoptosis assay, flow cytometry; settings: 48 h; for percentage of total apoptosis: untreated 5.97%
Method: as §2

REM134 cells [5] = assay: Wound healing assay; settings: REM134, 100 or 200 µM, 12 or 24 h, vs untreated control
Method: (§3) The effect of MPOBA on cell migration was examined using a two-dimensional wound healing assay. The REM134 and CMGT071020 cell lines were seeded in a 6-well plate at a density of 5 × 10^5 cells/well and allowed to incubate for 24 h until they reached 100% confluence. The cells were scratched using a sterile 1 mL pipette tip and then treated with MPOBA at concentrations ranging from 0 to 200 µM for 24 h. Images of the scratches were captured at 0, 12, and 24 h post-treatment using phase-contrast microscopy. The wound areas were checked and measured using the NIS-Elements D imaging software program version 5.2 (Nikon, Tokyo, Japan). The cell migration ability was calculated as a percentage of the area covered by cells at 24 h compared to the initial wound area at 0 h. The experiments were repeated four times.

CMGT071020 cells [6] = assay: Wound healing assay; settings: CMGT071020, 100 or 200 µM, 12 or 24 h, vs untreated control
Method: as §3

Cc1ncccc1Oc1ccccc1C=O [MPOBA, 2-((2-methylpyridin-3-yl)oxy)benzaldehyde]
cell morphology (REM134 cells [1]): reduced in cell size, cell shrinkage, rounding, vacuolation, and a loss of cell-to-cell adhesion
cell morphology (CMGT071020 cells [2]): reduced in cell size, cell shrinkage, rounding, vacuolation, and a loss of cell-to-cell adhesion
viability at 50 µM (REM134 cells [3]; Canis lupus familiaris, REM134, 50 μM, Figure 7A plot, read-out: viable cells): 84.1%
viability at 100 µM (REM134 cells [3]; Canis lupus familiaris, REM134, 100 μM, Figure 7A plot, read-out: viable cells): 75.5%
viability at 200 µM (REM134 cells [3]; Canis lupus familiaris, REM134, 200 μM, Figure 7A plot, read-out: viable cells): 69.6%
percentage of total apoptosis (REM134 cells [3]; REM134, 100 µM): 23.6%
percentage of total apoptosis (REM134 cells [3]; REM134, 200 µM): 28.75%
percentage of total apoptosis (CMGT071020 cells [4]; CMGT071020, 100 µM): 21.88%
percentage of total apoptosis (CMGT071020 cells [4]; CMGT071020, 200 µM): 27.07%
viability at 50 µM (CMGT071020 cells [4]; Canis lupus familiaris, CMGT071020, 50 μM, Figure 7A plot, read-out: viable cells): 80.6%
viability at 100 µM (CMGT071020 cells [4]; Canis lupus familiaris, CMGT071020, 100 μM, Figure 7A plot, read-out: viable cells): 72.9%
viability at 200 µM (CMGT071020 cells [4]; Canis lupus familiaris, CMGT071020, 200 μM, Figure 7A plot, read-out: viable cells): 63.4%
cell migration (wound closure) (REM134 cells [5]): significant decline in cell migration
cell migration (wound closure) (CMGT071020 cells [6]): significant decline in cell migration

From paper PMC10854894, “A New Benzo[6,7]oxepino[3,2-b] Pyridine Derivative Induces Apoptosis in Canine Mammary Cancer Cell Lines” (Animals : an Open Access Journal from MDPI, 2024)
